Patent publication US7399638B2, “Prediction method for lipidosis” (Takeda Pharmaceutical Company Limited, priority 2003, dated 2008)
Where two headings read alike, the source gives them in different places. Marks after values point to notes of the source that are not given here.

How the values were obtained:
Crj: CD(SD)IGS rats [1] = settings: male, rat, in vivo, 3 days
Procedure: (§1) The following 10 kinds of commercially available drugs were examined as the test compounds for a potential of inducing PLsis by histopathological examination and peripheral blood lymphocyte testing.
(§2) The following experiments were performed using the prematurely autopsied animals.
(§3) The high-dose dosing suspension was diluted about 3 fold and 10 fold with dispersant/solvent to prepare intermediate- and low-dose dosing suspensions. […] [For LD50, the Summary Basis of Approval (FDA) for each drug was referenced to.]
(§4) The animals were examined for mortality, general conditions, body weight, food consumption and the like using PM4800 (Mettler) and EB3200D (Shimadzu Corporation).
Hematological examination was performed for parameters such as RBC count, hematocrit, hemoglobin concentration, mean corpuscular hemoglobin (MCH), mean corpuscular hemoglobin concentration (MCHC), mean corpuscular volume (MCV), platelet count, WBC count, reticulocyte count, differential WBC, and vacuolated lymphocyte ratio (for PLsis-inducing compounds only) using ADVIA120 (Bayer Medical Ltd.) and E-4000 (Sysmex Corporation).

Crj: CD(SD)IGS rats [2] = settings: rat, in vivo
Procedure: as §1, §2, §3, §4

Crj: CD(SD)IGS rats [3] = settings: rat urine, LC-MS/MS, 60 mg/kg/day by gavage for 7 days
Procedure: During that period, the animals were quarantined, examined for general conditions, and weighed. Animals showing no abnormalities were selected and randomly allocated to five groups for urine collection each comprising four males.
The animals were individually housed in wire-net-based metal cages, and the individual cages were placed on water-washable rack in a clean booth as randomized for the animal groups. Animal room environmental conditions comprised a room temperature of 20 to 26° C., a relative humidity of 40 to 70%, and a fresh air ventilation frequency of 8 to 25 times/hour, with a bright phase of 12 hours/day (lighting time: 7:00 am to 7:00 pm). The animals were fed a γ-ray-irradiated powder food (CR-LPF, Oriental Yeast Co., Ltd.) and had free access to the food along with tap water.
A dispersant/medium was added to each test material, and the mixture was stirred to prepare dosing suspensions.
Each test material was administered by gavage at a dosing suspension volume of 10 mL/kg/day once daily for 7 days.
After completion of the administration, pooled urine was collected with ice cooling from all animals under fasting and water denial for about 6 hours. […]
Quantitative analyses of rat urinary hippuric acid and PAG by LC-MS/MS were performed as described below. […]

[4] = from Summary Basis of Approval (FDA); species and route not given; cited from earlier work
Crj: CD(SD)IGS rats [5] = assay: Urinary PAG/hippuric acid ratio by 1H NMR in rats; settings: rat urine, 3 days, mean n = 3-4
Crj: CD(SD)IGS rats [6] = settings: rat, gavage once daily for 3 days; printed on the line of the lowest dose, dose group unclear
Procedure: Each test drug was administered by gavage at a dosing liquid volume of 10 mL/kg/day once daily for 3 days (4 days for the negative control). The animals were examined for mortality, general conditions, body weight, food consumption and the like using PM4800 (Mettler) and EB3200D (Shimadzu Corporation).

CCN(CC)CCCC(C)Nc1c2ccc(Cl)cc2nc2ccc(OC)cc12 (stereo not drawn) [Quinacrine, quinacrine]
Mean vacuolated lymphocyte ratio (Crj: CD(SD)IGS rats [1]; 60 mg/kg/day): 14%
Mean vacuolated lymphocyte ratio (Crj: CD(SD)IGS rats [1]; 200 mg/kg/day): 32%
Mean vacuolated lymphocyte ratio (Crj: CD(SD)IGS rats [1]; 600 mg/kg/day): 52%
Histopathological changes (PLsis): Liver (Crj: CD(SD)IGS rats [2]; 60 mg/kg/day): +
Histopathological changes (PLsis): Lung (Crj: CD(SD)IGS rats [2]; 60 mg/kg/day): +
Histopathological changes (PLsis): Lymph node (Crj: CD(SD)IGS rats [2]; 60 mg/kg/day): −
Histopathological changes (PLsis): Others (Crj: CD(SD)IGS rats [2]; 60 mg/kg/day): −
Histopathological changes (PLsis): Spleen (Crj: CD(SD)IGS rats [2]; 60 mg/kg/day): −
Histopathological changes (PLsis): Liver (Crj: CD(SD)IGS rats [2]; 200 mg/kg/day): +
Histopathological changes (PLsis): Lung (Crj: CD(SD)IGS rats [2]; 200 mg/kg/day): +
Histopathological changes (PLsis): Lymph node (Crj: CD(SD)IGS rats [2]; 200 mg/kg/day): +
Histopathological changes (PLsis): Others (Crj: CD(SD)IGS rats [2]; 200 mg/kg/day): −
Histopathological changes (PLsis): Spleen (Crj: CD(SD)IGS rats [2]; 200 mg/kg/day): −
Histopathological changes (PLsis): Liver (Crj: CD(SD)IGS rats [2]; 600 mg/kg/day): +
Histopathological changes (PLsis): Lung (Crj: CD(SD)IGS rats [2]; 600 mg/kg/day): +
Histopathological changes (PLsis): Lymph node (Crj: CD(SD)IGS rats [2]; 600 mg/kg/day): +
Histopathological changes (PLsis): Others (Crj: CD(SD)IGS rats [2]; 600 mg/kg/day): −
Histopathological changes (PLsis): Spleen (Crj: CD(SD)IGS rats [2]; 600 mg/kg/day): −
PAG/hippuric acid concentration ratio compared to the control group (Crj: CD(SD)IGS rats [3]): increased
PAG/hippuric acid ratio (Crj: CD(SD)IGS rats [3]; mean ± SD n = 4): 0.2178 ± 0.0919
LD50 [4]: 900 mg/kg
PAG + hippuric acid/creatinine (Crj: CD(SD)IGS rats [5]; 60 mg/kg/day by gavage): 1.45
PAG/PAG + hippuric acid (Crj: CD(SD)IGS rats [5]; 60 mg/kg/day by gavage): 21.82* %
PAG/creatinine (first term of PAG + hippuric acid) (Crj: CD(SD)IGS rats [5]; 60 mg/kg/day by gavage): 0.32
PAG/hippuric acid (Crj: CD(SD)IGS rats [5]; 60 mg/kg/day by gavage): 28.35* %
hippuric acid/creatinine (second term of PAG + hippuric acid) (Crj: CD(SD)IGS rats [5]; 60 mg/kg/day by gavage): 1.13
PAG + hippuric acid/creatinine (Crj: CD(SD)IGS rats [5]; 200 mg/kg/day by gavage): 1.58
PAG/PAG + hippuric acid (Crj: CD(SD)IGS rats [5]; 200 mg/kg/day by gavage): 46.42* %
PAG/creatinine (first term of PAG + hippuric acid) (Crj: CD(SD)IGS rats [5]; 200 mg/kg/day by gavage): 0.75
PAG/hippuric acid (Crj: CD(SD)IGS rats [5]; 200 mg/kg/day by gavage): 91.89* %
hippuric acid/creatinine (second term of PAG + hippuric acid) (Crj: CD(SD)IGS rats [5]; 200 mg/kg/day by gavage): 0.83
PAG + hippuric acid/creatinine (Crj: CD(SD)IGS rats [5]; 600 mg/kg/day by gavage): 1.07*
PAG/PAG + hippuric acid (Crj: CD(SD)IGS rats [5]; 600 mg/kg/day by gavage): 78.62* %
PAG/creatinine (first term of PAG + hippuric acid) (Crj: CD(SD)IGS rats [5]; 600 mg/kg/day by gavage): 0.83
PAG/hippuric acid (Crj: CD(SD)IGS rats [5]; 600 mg/kg/day by gavage): 441.69* %
hippuric acid/creatinine (second term of PAG + hippuric acid) (Crj: CD(SD)IGS rats [5]; 600 mg/kg/day by gavage): 0.24

NC12CC3CC(CC(C3)C1)C2 [Amantadine]
death (note beside the dose) (Crj: CD(SD)IGS rats [6]): (death)
PAG + hippuric acid/creatinine (Crj: CD(SD)IGS rats [5]; 75 mg/kg/day by gavage): 1.44
PAG/PAG + hippuric acid (Crj: CD(SD)IGS rats [5]; 75 mg/kg/day by gavage): 16.17%
PAG/creatinine (first term of PAG + hippuric acid) (Crj: CD(SD)IGS rats [5]; 75 mg/kg/day by gavage): 0.23
PAG/hippuric acid (Crj: CD(SD)IGS rats [5]; 75 mg/kg/day by gavage): 19.31%
PAG + hippuric acid/creatinine (Crj: CD(SD)IGS rats [5]; 250 mg/kg/day by gavage): 1.21
PAG/PAG + hippuric acid (Crj: CD(SD)IGS rats [5]; 250 mg/kg/day by gavage): 16.18%
PAG/creatinine (first term of PAG + hippuric acid) (Crj: CD(SD)IGS rats [5]; 250 mg/kg/day by gavage): 0.20
PAG/hippuric acid (Crj: CD(SD)IGS rats [5]; 250 mg/kg/day by gavage): 19.69%
hippuric acid/creatinine (second term of PAG + hippuric acid) (Crj: CD(SD)IGS rats [5]; 250 mg/kg/day by gavage): 1.02
PAG + hippuric acid/creatinine (Crj: CD(SD)IGS rats [5]; 750 mg/kg/day by gavage): 0.37
PAG/PAG + hippuric acid (Crj: CD(SD)IGS rats [5]; 750 mg/kg/day by gavage): 56.58%
PAG/creatinine (first term of PAG + hippuric acid) (Crj: CD(SD)IGS rats [5]; 750 mg/kg/day by gavage): 0.21
PAG/hippuric acid (Crj: CD(SD)IGS rats [5]; 750 mg/kg/day by gavage): 130.33%
hippuric acid/creatinine (second term of PAG + hippuric acid) (Crj: CD(SD)IGS rats [5]; 750 mg/kg/day by gavage): 0.16
